Laboratory results published in US9932314B2, “Pyrazole compounds and their use as T-type calcium channel blockers” (IDORSIA PHARMACEUTICALS LTD, priority 2015, dated 2018).

biological target: T1, voltage-dependent T-type calcium channel subunit alpha-1G (Cav3.2) (Homo sapiens, UniProt O95180); experiment: FLIPR calcium flux assay, HEK293 cells recombinantly expressing Cav3.2; format: cell-based; conditions: Cav3.2-channel, Fluo-4-AM, 3 min incubation, stimulation with 10 mM CaCl2
T1 construct: expressed in transfected cells; host or cells: HEK293
T1 sequence (O95180 whole entry): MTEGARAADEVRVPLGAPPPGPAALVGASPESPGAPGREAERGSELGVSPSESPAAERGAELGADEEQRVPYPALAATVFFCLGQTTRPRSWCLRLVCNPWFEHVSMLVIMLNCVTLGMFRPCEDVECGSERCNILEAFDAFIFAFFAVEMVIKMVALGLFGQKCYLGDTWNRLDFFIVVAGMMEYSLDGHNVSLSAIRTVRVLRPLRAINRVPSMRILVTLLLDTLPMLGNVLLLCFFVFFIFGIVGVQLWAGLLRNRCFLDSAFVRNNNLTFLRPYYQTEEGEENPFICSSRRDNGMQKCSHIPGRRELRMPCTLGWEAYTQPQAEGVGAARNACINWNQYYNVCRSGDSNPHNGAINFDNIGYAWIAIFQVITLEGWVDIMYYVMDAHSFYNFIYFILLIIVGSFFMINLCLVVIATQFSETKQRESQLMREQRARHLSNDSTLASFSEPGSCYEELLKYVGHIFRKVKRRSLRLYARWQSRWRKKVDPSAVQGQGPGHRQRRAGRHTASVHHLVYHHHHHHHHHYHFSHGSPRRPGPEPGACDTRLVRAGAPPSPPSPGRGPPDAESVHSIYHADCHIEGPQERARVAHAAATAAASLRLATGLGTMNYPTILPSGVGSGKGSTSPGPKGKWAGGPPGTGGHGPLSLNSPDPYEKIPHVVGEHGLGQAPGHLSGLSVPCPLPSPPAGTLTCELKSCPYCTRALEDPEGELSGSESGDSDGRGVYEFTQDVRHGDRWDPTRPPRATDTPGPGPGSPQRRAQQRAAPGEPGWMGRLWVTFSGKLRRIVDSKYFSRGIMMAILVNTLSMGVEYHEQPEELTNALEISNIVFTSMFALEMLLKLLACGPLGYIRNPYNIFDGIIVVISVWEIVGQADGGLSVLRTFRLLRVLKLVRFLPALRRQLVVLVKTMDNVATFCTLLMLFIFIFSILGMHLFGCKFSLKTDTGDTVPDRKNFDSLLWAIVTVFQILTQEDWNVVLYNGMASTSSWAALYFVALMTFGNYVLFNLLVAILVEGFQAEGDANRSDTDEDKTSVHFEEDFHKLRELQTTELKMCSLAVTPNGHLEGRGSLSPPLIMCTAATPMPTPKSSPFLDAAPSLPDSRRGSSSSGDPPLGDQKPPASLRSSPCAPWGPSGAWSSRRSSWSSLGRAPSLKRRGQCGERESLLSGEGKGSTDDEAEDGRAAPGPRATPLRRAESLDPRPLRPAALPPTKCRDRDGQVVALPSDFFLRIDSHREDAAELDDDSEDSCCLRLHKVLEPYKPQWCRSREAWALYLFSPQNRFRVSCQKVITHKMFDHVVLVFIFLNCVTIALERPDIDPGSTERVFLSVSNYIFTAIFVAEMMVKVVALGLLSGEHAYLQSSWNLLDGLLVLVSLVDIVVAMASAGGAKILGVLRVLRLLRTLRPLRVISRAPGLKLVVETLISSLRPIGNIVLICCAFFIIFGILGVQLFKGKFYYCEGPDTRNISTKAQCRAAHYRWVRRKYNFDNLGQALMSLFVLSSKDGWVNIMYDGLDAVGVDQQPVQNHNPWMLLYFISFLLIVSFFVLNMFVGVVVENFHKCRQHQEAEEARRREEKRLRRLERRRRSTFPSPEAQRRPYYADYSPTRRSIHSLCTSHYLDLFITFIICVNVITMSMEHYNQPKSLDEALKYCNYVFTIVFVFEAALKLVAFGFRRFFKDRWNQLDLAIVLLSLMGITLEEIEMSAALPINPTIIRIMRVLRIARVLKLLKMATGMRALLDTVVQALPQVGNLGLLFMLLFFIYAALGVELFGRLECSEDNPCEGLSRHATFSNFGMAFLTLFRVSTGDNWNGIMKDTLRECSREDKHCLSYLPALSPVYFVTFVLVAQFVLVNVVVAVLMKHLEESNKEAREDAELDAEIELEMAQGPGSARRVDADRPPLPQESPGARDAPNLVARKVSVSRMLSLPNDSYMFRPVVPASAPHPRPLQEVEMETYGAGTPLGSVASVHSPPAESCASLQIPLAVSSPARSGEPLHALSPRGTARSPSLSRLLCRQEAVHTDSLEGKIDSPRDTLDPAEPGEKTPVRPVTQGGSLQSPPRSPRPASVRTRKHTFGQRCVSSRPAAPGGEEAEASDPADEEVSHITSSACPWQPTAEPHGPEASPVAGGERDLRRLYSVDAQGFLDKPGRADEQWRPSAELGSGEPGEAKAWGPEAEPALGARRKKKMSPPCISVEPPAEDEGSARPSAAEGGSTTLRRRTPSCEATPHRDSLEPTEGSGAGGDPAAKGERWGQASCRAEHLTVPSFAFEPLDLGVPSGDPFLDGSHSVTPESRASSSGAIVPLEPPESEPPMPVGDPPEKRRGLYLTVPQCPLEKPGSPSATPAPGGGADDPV
Description: In Vitro Methods—Measurement of Calcium Channel Flux by Means of FLIPR Assays.
HEK293 cells recombinantly expressing either voltage-dependent T-type calcium channel subunit […] (Cav3.2) or voltage-dependent L-type calcium channel subunit alpha-1C (Cav1.2) are assayed for calcium flux using the calcium indicator dye Fluo-4-AM (Molecular Devices) and FLIPR technology (Fluorometric Imaging Plate Reader, Molecular Devices) (Xie X, Van Deusen A L, Vitko I, Babu D A, Davies L A, Huynh N, Cheng H, Yang N, Barrett P Q, Perez-Reyes E. Validation of high throughput screening assays against three subtypes of Ca(v)3 T-type channels using molecular and pharmacologic approaches. Assay and Drug Development Technologies 2007, 5(2), 191-203). The HEK293 cells recombinantly expressing Cav3.2 are maintained in DMEM growth medium (Life Technologies) supplemented with 10% Fetal Bovine Serum (FBS), 100 U/ml penicilin (Life Technologies), 100 μg/ml streptomycin (Life Technologies) and 1 mg/ml G418 (Life Technologies). HEK293 cells recombinantly expressing Cav1.2 are maintained in DMEM growth medium (Life technologies) supplemented with 10% FBS, 0.1 mg/ml G418 (Life Technologies), 0.1 mg/ml hygromycin (Life Technologies) and 40 ug/ml zeocin (Life Technologies).
The seeded plates are incubated overnight at 37° C.
The cells are then washed three times with assay buffer (HBSS 1×; 0.375 g/L NaHCO3; 20 mM Hepes; 1% FBS; pH 7.4) and allowed to rest in 50 μl of wash buffer for 30 minutes.
Stock solutions of test compounds are prepared to a concentration of 10 mM in DMSO. For the Cav3.2 assay, serial dilutions of the compounds are prepared in TEAC buffer (100 mM tetraethylammonium chloride; 20 mM Hepes; 2.5 mM CaCl2; 5 mM KCl; 1 mM MgCl2; 1% FBS; pH 7.2), for the Cav1.2 assay serial dilutions are prepared in assay buffer. […] The compounds are incubated with the cells for 3 minutes and Ca2+ entry is stimulated by adding either CaCl2 to a final concentration of 10 mM (Cav3.2 assay) or by adding KCl to a final concentration of 20 mM (Cav1.2 assay). The kinetics of fluorescence increase are recorded for every well and the area under the fluorescence trace for every compound concentration is used to generate inhibition curves using non-linear regression sigmoidal concentration-response curve analysis with in-house software.

First: O=C(Cc1ccc(N2CC[C@@H](F)C2)nc1)Nc1ccn(Cc2ccc(F)cc2)n1 [Example 141, N-[1-(4-Fluoro-benzyl)-1H-pyrazol-3-yl]-2-[6-((R)-3-fluoro-pyrrolidin-1-yl)-pyridin-3-yl]-acetamide]
Second: O=C(Cc1ccc(N2CC[C@H](F)C2)nc1)Nc1ccn(Cc2ccc(F)cc2)n1 [Example 155, N-[1-(4-Fluoro-benzyl)-1H-pyrazol-3-yl]-2-[6((S)-3-fluoro-pyrrolidin-1-yl)-pyridin-3-yl]-acetamide]
The IC50 of the first is 2-fold lower: 35 nM for the first, 70 nM for the second. The first is the more potent here.

Going from `N#Cc1ccc(Cn2ccc(NC(=O)Cc3ccc(S(F)(F)(F)(F)F)cc3)n2)nc1` [Example 336, N-(1-((5-cyanopyridin-2-yl)methyl)-1H-pyrazo1-3-yl)-2-(4-(pentafluoro-λ^6-sulfanyl)phenyl)acetamide] to `N#Cc1ccc(Cn2ccc(NC(=O)Cc3ccc(OCC4COC4)cc3)n2)nc1` [Example 287, N-[1-(5-Cyano-pyridin-2-ylmethyl)-1H-pyrazol-3-yl]-2-[4-(oxetan-3-ylmethoxy)-phenyl]-acetamide], the IC50 rises from 34 nM to 9480 nM (280-fold). The first is the more potent here.

`N#Cc1c(F)cc(Cn2ccc(NC(=O)Cc3ccc(OCC4(F)COC4)cc3)n2)cc1F` [Example 361, N-[1-(4-Cyano-3,5-difluoro-benzyl)-1H-pyrazol-3-yl]-2-[4-(3-fluoro-oxetan-3-ylmethoxy)-phenyl]-acetamide] and `N#Cc1cc(Cn2ccc(NC(=O)Cc3ccc(OCC4(F)COC4)cc3)n2)ccc1F` [Example 267, N-[1-(3-Cyano-4-fluoro-benzyl)-1H-pyrazol-3-yl]-2-[4-(3-fluoro-oxetan-3-ylmethoxy)-phenyl]-acetamide] are within 1.5-fold of each other in IC50: 80 nM for the first, 90 nM for the second.

First: COCCN(C)c1ccc(CC(=O)Nc2ccn(Cc3ccc(C#N)cc3)n2)cn1 [Example 181, N-[1-(4-Cyano-benzyl)-1H-pyrazol-3-yl]-2-{6-[(2-methoxy-ethyl)-methyl-amino]-pyridin-3-yl}-acetamide]
Second: COCCN(C)c1ccc(CC(=O)Nc2ccn(Cc3ccc(OC)cc3)n2)cc1 [Example 125, N-[1-(4-Methoxy-benzyl)-1H-pyrazol-3-yl]-2-{4-[(2-methoxy-ethyl)-methyl-amino]-phenyl}-acetamide]
The IC50 of the first is 4.2-fold higher: 272 nM for the first, 64 nM for the second. The second is the more potent here.

Compared with `CC(C)Cc1ccc(CC(=O)Nc2ccn(Cc3ccc(C#N)cn3)n2)cc1C#N` [Example 392, 2-(3-Cyano-4-isobutyl-phenyl)-N-[1-(5-cyano-pyridin-2-ylmethyl)-1H-pyrazol-3-yl]-acetamide], `CC1(C)Cc2cc(CC(=O)Nc3ccn(Cc4ccc(C#N)cn4)n3)ccc2O1` [Example 378, N-[1-(5-Cyano-pyridin-2-ylmethyl)-1H-pyrazol-3-yl]-2-(2,2-dimethyl-2,3-dihydro-benzofuran-5-yl)-acetamide] is 2.5-fold higher in IC50: 101 nM for the first, 249 nM for the second.

`N#Cc1ccc(Cn2ccc(NC(=O)Cc3ccc(OCC(F)(F)F)cc3)n2)cc1` [Example 47, N-[1-(4-Cyano-benzyl)-1H-pyrazol-3-yl]-2-[4-(2,2,2-trifluoro-ethoxy)-phenyl]-acetamide] and `CC1(COc2ccc(CC(=O)Nc3ccn(Cc4ccc(C#N)cc4)n3)cc2)CC(F)(F)C1` [Example 298, N-[1-(4-Cyano-benzyl)-1H-pyrazol-3-yl]-2-[4-(3,3-difluoro-1-methyl-cyclobutylmethoxy)-phenyl]-acetamide] are within 1.5-fold of each other in IC50: 37 nM for the first, 43 nM for the second.

First: CCN(CC)c1ccc(CC(=O)Nc2ccn(Cc3ccc(OC)cc3)n2)cc1 [Example 112, 2-(4-Diethylamino-phenyl)-N-[1-(4-methoxy-benzyl)-1H-pyrazol-3-yl]-acetamide]
Second: CC(C)(C)c1ccc(CC(=O)Nc2ccn(Cc3ccc(C#N)cc3)n2)cc1 [Example 271, 2-(4-tert-Butyl-phenyl)-N-[1-(4-cyano-benzyl)-1H-pyrazol-3-yl]-acetamide]
The IC50 of the first is 6.2-fold higher: 21 nM for the first, 3.4 nM for the second. The second is the more potent here.

Compared with `Cc1cc(CC(=O)Nc2ccn(Cc3cc(C#N)c(F)cn3)n2)cc(C)c1OCC(F)(F)F` [Example 416, N-[1-(4-Cyano-5-fluoro-pyridin-2-ylmethyl)-1H-pyrazol-3-yl]-2-[3,5-dimethyl-4-(2,2,2-trifluoro-ethoxy)-phenyl]-acetamide], `CCc1cc(CC(=O)Nc2ccn(Cc3cc(C#N)c(F)cn3)n2)ccc1OCC(F)(F)F` [Example 413, N-[1-(4-Cyano-5-fluoro-pyridin-2-ylmethyl)-1H-pyrazol-3-yl]-2-[3-ethyl-4-(2,2,2-trifluoro-ethoxy)-phenyl]-acetamide] is 1.8-fold higher in IC50: 17 nM for the first, 30 nM for the second.

Compared with `N#Cc1ccc(Cn2ccc(NC(=O)Cc3ccc(N4CCC(F)(F)C4)cc3)n2)cc1` [Example 76, N-[1-(4-Cyano-benzyl)-1H-pyrazol-3-yl]-2-[4-(3,3-difluoro-pyrrolidin-1-yl)-phenyl]-acetamide], `N#Cc1ccc(Cn2ccc(NC(=O)Cc3ccc(N4CC(F)C4)cc3)n2)cc1` [Example 72, N-[1-(4-Cyano-benzyl)-1H-pyrazol-3-yl]-2-[4-(3-fluoro-azetidin-l-yl)-phenyl]-acetamide] is 7.5-fold higher in IC50: 6.1 nM for the first, 46 nM for the second.

`Cc1nn(C)c2ccc(CC(=O)Nc3ccn(Cc4cc(F)c(C#N)c(F)c4)n3)cc12` [Example 348, N-[1-(4-Cyano-3,5-difluoro-benzyl)-1H-pyrazol-3-yl]-2-(1,3-dimethyl-1H-indazol-5-yl)-acetamide] and `CC(C)c1ccc(CC(=O)Nc2ccn(Cc3cc(F)c(C#N)c(F)c3)n2)cc1` [Example 353, N-[1-(4-Cyano-3,5-difluoro-benzyl)-1H-pyrazol-3-yl]-2-(4-isopropyl-phenyl)-acetamide] are within 1.5-fold of each other in IC50: 29 nM for the first, 30 nM for the second.

`O=C(Cc1ccc(-c2ncccn2)cc1)Nc1ccn(Cc2ccc(F)cc2)n1` [Example 85, N-[1-(4-Fluoro-benzyl)-1H-pyrazol-3-yl]-2-(4-pyrimidin-2-yl-phenyl)-acetamide] and `O=C(Cc1ccc2nccnc2c1)Nc1ccn(Cc2ccc(F)c(F)c2)n1` [Example 205, N-[1-(3,4-Difluoro-benzyl)-1H-pyrazol-3-yl]-2-quinoxalin-6-yl-acetamide] are within 1.5-fold of each other in IC50: 301 nM for the first, 288 nM for the second.

Going from `O=C(Cc1ccc(OC2CCC2)cc1)Nc1ccn(Cc2ccc(F)cn2)n1` [Example 200, 2-(4-Cyclobutoxy-phenyl)-N-[1-(5-fluoro-pyridin-2-ylmethyl)-1H-pyrazol-3-yl]-acetamide] to `CN(C)c1ccc(CC(=O)Nc2ccn(Cc3ccc(F)cn3)n2)cn1` [Example 150, 2-(6-Dimethylamino-pyridin-3-yl)-N-[1-(5-fluoro-pyridin-2-ylmethyl)-1H-pyrazol-3-yl]-acetamide], the IC50 rises from 67 nM to 682 nM (10-fold). The first is the more potent here.

First: CC1(COc2ccc(CC(=O)Nc3ccn(Cc4ccc(F)c(C#N)c4)n3)cc2)CC(F)(F)C1 [Example 311, N-[1-(3-Cyano-4-fluoro-benzyl)-1H-pyrazol-3-yl]-2-[4-(3,3-difluoro-1-methyl-cyclobutylmethoxy)-phenyl]-acetamide]
Second: N#Cc1ccc(Cn2ccc(NC(=O)Cc3ccc(N4CCCC4)nc3)n2)cc1F [Example 275, N-[1-(4-Cyano-3-fluoro-benzyl)-1H-pyrazol-3-yl]-2-(6-pyrrolidin-1-yl-pyridin-3-yl)-acetamide]
The IC50 of the first is 5.8-fold higher: 81 nM for the first, 14 nM for the second.

First: N#Cc1ccc(Cn2ccc(NC(=O)Cc3ccc(N4CC(F)(F)C4)nc3)n2)nc1 [Example 142, N-[1-(5-Cyano-pyridin-2-ylmethyl)-1H-pyrazol-3-yl]-2-[6-(3,3-difluoro-azetidin-1-yl)-pyridin-3-yl]-acetamide]
Second: CC(C)c1ccc(CC(=O)Nc2ccn(Cc3ccc(Br)cn3)n2)cc1 [Example 94, N-[1-(5-Bromo-pyridin-2-ylmethyl)-1H-pyrazol-3-yl]-2-(4-isopropyl-phenyl)-acetamide]
The IC50 of the first is 22-fold higher: 185 nM for the first, 8.3 nM for the second. The second is the more potent here.

Going from `CC(C)Cc1ccc(Cn2ccc(NC(=O)Cc3ccc(C(C)C)cc3)n2)nc1` [Example 98, N-[1-(5-Isobutyl-pyridin-2-ylmethyl)-1H-pyrazol-3-yl]-2-(4-isopropyl-phenyl)-acetamide] to `COc1c(F)cc(Cn2ccc(NC(=O)Cc3ccc(N(C)C)nc3)n2)cc1F` [Example 43, N-[1-(3,5-Difluoro-4-methoxy-benzyl)-1H-pyrazol-3-yl]-2-(6-dimethylamino-pyridin-3-yl)-acetamide], the IC50 rises from 38 nM to 82 nM (2.2-fold).

Going from `Cc1cc(CC(=O)Nc2ccn(Cc3ccc(F)c(C#N)n3)n2)ccc1OCC(F)(F)F` [Example 391, N-[1-(6-Cyano-5-fluoro-pyridin-2-ylmethyl)-1H-pyrazol-3-yl]-2-[3-methyl-4-(2,2,2-trifluoro-ethoxy)-phenyl]-acetamide] to `CN(C)c1ccc(CC(=O)Nc2ccn(Cc3cc(F)c(F)c(F)c3)n2)cc1` [Example 24, 2-(4-Dimethylamino-phenyl)-N-[1-(3,4,5-trifluoro-benzyl)-1H-pyrazol-3-yl]-acetamide], the IC50 rises from 2.1 nM to 13 nM (6.2-fold). The first is the more potent here.
